This is an account of results in publication PMC6154605, “Multi-Anti-Parasitic Activity of Arylidene Ketones and Thiazolidene Hydrazines against Trypanosoma cruzi and Leishmania spp” (Molecules : A Journal of Synthetic Chemistry and Natural …, 2017).

In assay [1] the test system is L. infantum promastigotes. Kind of assay: Leishmanicidal activity on promastigotes, resazurin. The assay is classed as cell-based, Leishmania infantum. Particulars: for IC50: 48 h, read-out: IC50 ± SD Promastigotes L. infantum; for SI NCTC/ L. infantum: ratio IC50 mammalian cell / IC50 parasite (promastigotes). The text has this:
(§1) We initially selected compounds previously reported to have anti-T. cruzi activity from our chemical library to evaluate their leishmanicidal activity. […]. To evaluate their activity in Leishmania spp., we performed a phenotypic screening using the promastigote form of L. infantum (MHOM/FR/91/LEM-2259) and L. braziliensis ([…]) (Table 1A for the thiazolidenehydrazine derivate and Table 1B for the arylideneketones family).
(§2) A culture of L. braziliensis (MHOM/BR/75/M2904) and L. infantum (MHOM/FR/91/LEM2259V) was obtained from the Facultad de Farmacia (Universidad Complutense, Madrid, Spain). The maintenance of the strains, the form of cultivation and the isolation of the shape of the promastigote were performed following the procedures described by Roldos et al.. The promastigotes were grown at 22 °C in Schneider’s Drosophila medium supplemented with 20% FBS. The assay was performed using a modification of a previous method. Promastigotes (2 × 10^6 parasites/well) were cultivated in 96-well plastic plates. Compounds were dissolved in dimethylsulfoxide (DMSO). Different dilutions of the compounds with a final volume up to 200 µL were added. After 48 h at 26 °C, 20 µL of a 2 mM resazurin solution were added, and the oxidation-reduction was quantified at 570 and 600 nm. The solution of resazurin was prepared at 2.5 mM in phosphate buffered solution (PBS), pH 7.4, and filtered through 0.22-µm membranes prior to use. All tests were carried out in triplicate. Resazurin sodium salt was obtained from Sigma-Aldrich (St. Louis, MO, USA) and stored at 4 °C protected from light. The efficacy of each compound was estimated by calculating the IC50 values. Each antiproliferative experiment was done in duplicate, and each concentration was tested in triplicate.
(In general: Alamar Blue is a resazurin reagent that responds to reducing activity.)

Assay [2] deals with L. braziliensis promastigotes. The description is as above. Conditions: for IC50: 48 h, read-out: IC50 ± SD Promastigotes L. braziliensis; for SI NCTC/ L. braziliensis: ratio IC50 mammalian cell / IC50 parasite (promastigotes). The class given is cell-based, Leishmania braziliensis.
Text: as §1, §2

The test system of assay [3] is T. cruzi epimastigotes, Tulahuen 2 strain (genotype TcVI). Kind of assay: In vitro anti-T. cruzi activity, growth inhibition of epimastigotes. Particulars: for IC50: Trypanosoma cruzi, TULAHUEN; for Trypanocidal activity on T. cruzi in words: molecular stripping, epimastigotes. The assay is classed as cell-based, Trypanosoma cruzi. As to the method:
For the in vitro anti-T. cruzi activity, we used epimastigotes of the Tulahuen 2 strain (genotype TcVI) grown in an axenic milieu (BHI-Tryptose). Cells from a 5–7-day-old culture were inoculated in fresh culture milieu to give an initial concentration of 1.00 × 10^6 cells/mL. The absorbance at 600 nm of the cells in culture was measured every day. At Day 5, the milieu was inoculated with different quantities of the compounds from a stock solution in DMSO (DMSO concentration in the culture milieu never exceeded 0.4%). The control was made in the presence of 0.4% DMSO and in the absence of compounds. Each concentration of compound was evaluated in duplicate. At Day 5, the absorbance of the culture was measured and related to the control. […] Each antiproliferative experiment was done in duplicate, and each concentration was tested in triplicate.

Assay [4] deals with J774.1 murine macrophages. Conditions: J774.1; read-out: IC50 ± SD Murine Macrophages; cited from earlier work.
For a further assay, the system named is NCTC929 fibroblasts. The experiment in a line: Nonspecific cytotoxicity on fibroblasts, resazurin. Particulars: NCTC-929, 24 h; read-out: IC50 ± SD Fibroblast NCTC929. The class given is cell-based. Here is the method:
To establish the selectivity of the compounds against the parasites, nonspecific cytotoxicity against mammalian cells, using J774.1 murine macrophages and fibroblast NCTC929, was studied for the most relevant derivatives. The selectivity indexes were calculated as the ratio between cytotoxicity for mammalian cells and the anti-parasitic activity (Table 2).
NCTC-Clone 929 were grown in minimal essential medium (Sigma) supplemented with 10% heat-inactivated FBS, penicillin G (100 U/mL) and streptomycin (100 µg/mL). Cell cultures were maintained at 37 °C in a humidified 5% CO2 atmosphere. The procedure for cell viability measurement was evaluated with resazurin by a colorimetric method. The cells were plated in 96 microtiter plates at 3.00 × 10^4 cells/well in 100 µL growth medium. The cells were grown overnight at 37 °C, 5% CO2. Thereafter, the medium was removed, and the compounds were added to 200 µL of medium for 24 h. After incubation, 20 µL of a 2 mM resazurin solution were added to each well. The plates were incubated for 3 h to allow optimal oxidation-reduction. The reduction of resazurin was determined by dual wavelength absorbance measurement at 490 and 595 nm. The background was subtracted. Each concentration was assayed three times. Medium and drug controls were used in each test as blanks.

The subject of assay [5] is T. cruzi epimastigotes, Tulahuen 2 strain (genotype TcVI). Conditions: cited from earlier work; for SI J774.1/ T. cruzi: ratio IC50 mammalian cell / IC50 parasite (epimastigotes); for IC50: read-out: IC50 ± SD Epimastigotes T. cruzi.
Setting [6] is: Figure 4, molecular stripping of HIT1, read-out: Effect of structural change on trypanocidal activity (emoticon code).
Where [7] appears, read: Tulahuen 2 strain, read-out: IC50 ± SD Epimastigotes T. cruzi.

Where two headings read alike, the source gives them in different places. Marks after values point to notes of the source that are not given here.

For `C=CCn1c(-c2ccc(Br)cc2)cs\c1=N/N=C/C(C)=C/c1ccco1` [GAT2015], the IC50 in assay [1] and in assay [2] was greater than 25 µM throughout.

On to `O=C(C=Cc1ccco1)N1CCN(CC=Cc2ccccc2)CC1` [GAT0804], for which the IC50 in assay [3] (setting [6]) is greater than 25 µM.

With `C=CCn1c(C(=O)CN2CCN(c3ccccc3)CC2)csc1=NN=CC=Cc1ccco1` [GATk1, (2E,2Z)-2-(2-((E)-3-(furan-2-yl)propeniliden)hydrazono)-(3-allyl-2,3-dihydrothiazol-4-yl)-2-(4-phenylpiperazin-1-yl)ethanone], the IC50 in assay [3] (setting [6]) and in assay [3] (setting [7]) was greater than 25 µM each time.

As to `C=CCn1c(C(=O)NN2CCN(C/C=C/c3ccccc3)CC2)cs\c1=N/N=C/C=C/c1ccco1` [GAT1613], in assay [3] (setting [7]), the IC50 was determined as 20 ± 2 µM. In addition, the “Trypanocidal activity on T. cruzi in words” value (“Trypanocidal activity” below) in assay [3] is “the activity was lost”.

Take `Nc1nc(-c2ccc(Cl)cc2)cs1` [GAT2012, 4(4-Chlorophenyl)-thiazol-2(3H)-ylidene-2-amine]: in assay [3] (setting [7]), the IC50 is greater than 25 µM. Also, the “Trypanocidal activity” value in assay [3] was “lack of activity”.

Consider `CN1C/C(=C\C=C\c2ccco2)C(=O)/C(=C/C=C/c2ccco2)C1` [Pg150, (3E,5E)-3,5-Bis((E)-3-(furan-2-yl)allylidene)-1-methylpiperidin-4-one], for which the IC50 in assay [1] (Leishmania infantum), in assay [2] (Leishmania braziliensis) and in assay [3] (setting [7]) was greater than 25 µM throughout. The “Trypanocidal activity” value in assay [3] is “the activity was completely lost”.

Turning to `O=C1/C(=C/C=C/c2cccs2)CCC/C1=C\C=C\c1cccs1` [EA156], the IC50 in assay [1] (Leishmania infantum) was 16 ± 3 µM; in assay [4], 20 ± 1 µM; in assay [2] (Leishmania braziliensis), greater than 100 µM; in the assay on NCTC929 fibroblasts, 1980 ± 20 µM; in assay [5], 0.6 ± 0.2 µM. For the same molecule, the “SI NCTC/ L. infantum” value in assay [1] is 124. Besides, the “SI J774.1/ T. cruzi” value in assay [5] is reported as 33 ^c.

For `O=C1/C(=C/c2ccccc2)CCC/C1=C\c1ccccc1` [EA142], the IC50 in assay [1] (Leishmania infantum) is 9.6 ± 0.9 µM; in assay [2] (Leishmania braziliensis), 4.2 ± 0.7 µM; in assay [5], 5.1 ± 0.3 µM.

For `Clc1ccc(-c2csc(/N=C/C=C/c3ccco3)n2)cc1` [GAT2112, (E)-4-(4-Chlorophenyl)-N-((E)-3-(furan-2-yl)allylidene)thiazol-2-amine], in assay [3], the “Trypanocidal activity” value is given as “the activity was lost”.

For the molecule `O=C(/C=C/c1ccco1)/C=C/c1ccco1` [EA134], the IC50 in assay [1] (Leishmania infantum) is 6 ± 2 µM; in assay [4], 115 ± 6 µM; in assay [2] (Leishmania braziliensis) it was 10 ± 6 µM; in the assay with NCTC929 fibroblasts, 114 ± 2 µM; in assay [5], 24 ± 2 µM. For the same molecule, the “SI NCTC/ L. infantum” value in assay [1] worked out at 19. For the same molecule, in assay [2], the “SI NCTC/ L. braziliensis” value turned out to be 11. Moreover, the “SI J774.1/ T. cruzi” value in assay [5] is recorded as 5 ^c.

Consider `O=C1/C(=C/C=C/c2cccs2)CC/C1=C\C=C\c1cccs1` [EA160], for which the IC50 in assay [1] (Leishmania infantum) is 11 ± 3 µM; in assay [4], 15 ± 1 µM; in assay [2] (Leishmania braziliensis), greater than 100 µM; in the assay with NCTC929 fibroblasts it was 4909 ± 36 µM; in assay [5], 0.04 ± 0.01 µM. For the same molecule, in assay [1], the “SI NCTC/ L. infantum” value is listed as 446. The “SI J774.1/ T. cruzi” value in assay [5] was 375 ^c.

Take `O=C1/C(=C/c2ccco2)CCC/C1=C\c1ccco1` [EA154]: the IC50 in assay [1] (Leishmania infantum) is greater than 25 µM; in assay [2] (Leishmania braziliensis) it was greater than 25 µM; in assay [3] (setting [7]), 7 ± 2 µM.

Turning to `O=C(/C=C/C=C/c1ccccc1)/C=C/C=C/c1ccccc1` [EA139], the IC50 was greater than 25 µM in assay [1] (Leishmania infantum), greater than 25 µM in assay [2] (Leishmania braziliensis) and 11 ± 1 µM in assay [3] (setting [7]).

Regarding `C=CCn1c(C(=O)CN2CCN(Cc3ccccc3)CC2)cs/c1=N/N=C\C=C\c1ccco1` [GATk5, 1-((Z)-3-allyl-2-((E)-((E)-3-(furan-2-yl)allylidene)hydrazono)-2,3-dihydrothiazol-4-yl)-2-(4-benzylpiperazin-1-yl)ethanone], the IC50 in assay [3] (setting [6]) and in assay [3] (setting [7]) was greater than 25 µM each time.

With `O=C(/C=C/C=C/C=C/c1cccs1)/C=C/C=C/C=C/c1cccs1` [EA152], the IC50 is 30 ± 8 µM in assay [1] (Leishmania infantum), greater than 100 µM in assay [2] (Leishmania braziliensis) and greater than 25 µM in assay [3] (setting [7]).

With `C=CCn1c(-c2ccc(Cl)cc2)cs\c1=N/N=C/C=C/C=C/c1ccco1` [GATA2], in assay [3] (setting [7]), the IC50 amounted to 10 ± 2 µM.

`O=C(/C=C/C=C/c1cccs1)/C=C/C=C/c1cccs1` [EA141]: the IC50 was 19 ± 5 µM in assay [1] (Leishmania infantum); 10 ± 2 µM in assay [4]; 36 ± 3 µM in assay [2] (Leishmania braziliensis); 1700 ± 40 µM in the assay with NCTC929 fibroblasts; 12.6 ± 1.4 µM in assay [5]. Besides, in assay [1], the “SI NCTC/ L. infantum” value amounted to 90. Further, the “SI NCTC/ L. braziliensis” value in assay [2] is 47. Further, in assay [5], the “SI J774.1/ T. cruzi” value was 1 ^c.

Consider `O=C1/C(=C/C=C/c2ccco2)CC/C1=C\C=C\c1ccco1` [EA161], for which the IC50 in assay [1] (Leishmania infantum) was 16 ± 4 µM; in assay [4] it was 19 ± 2 µM; in assay [2] (Leishmania braziliensis), 18 ± 4 µM; in the assay on NCTC929 fibroblasts, 756 ± 17 µM; in assay [5], 5.4 ± 1.6 µM. The “SI NCTC/ L. infantum” value in assay [1] came out at 47. Besides, the “SI NCTC/ L. braziliensis” value in assay [2] is listed as 42. Also, in assay [5], the “SI J774.1/ T. cruzi” value was 4 ^c.

`C=CCn1c(C(=O)N2CCSCC2)csc1=NN=CC=Cc1ccco1` [GATjm18]: the IC50 in assay [3] (setting [7]) worked out at 2.7 ± 0.5 µM. Moreover, in assay [3], the “Trypanocidal activity” value was “the activity was maintained”.

In the case of `Cc1ccc(/C=C/C=N/N2CCN(CC=Cc3ccccc3)CC2)o1` [GAT0413, (E)-4-cinnamyl-N-((E)-3-(5-methylfuran-2-yl)allylidene)piperazin-1-amine], the IC50 in assay [1] (Leishmania infantum) is greater than 25 µM; in assay [2] (Leishmania braziliensis), greater than 25 µM; in assay [3] (setting [6]), 5 to 25 µM; in assay [3] (setting [7]), 12 ± 2 µM. The “Trypanocidal activity” value in assay [3] was “the activity was restored”.

As to `O=C1/C(=C/C=C/c2ccccc2)CCC/C1=C\C=C\c1ccccc1` [EA143], the IC50 is greater than 25 µM in assay [1] (Leishmania infantum), greater than 25 µM in assay [2] (Leishmania braziliensis) and 14 ± 3 µM in assay [3] (setting [7]).

As for `C=CCn1c(C(=O)CN2CCSCC2)cs/c1=N/N=C\C=C\c1ccco1` [GATk2, 1-((Z)-3-allyl-2-((E)-((E)-3-(furan-2-yl)allylidene)hydrazono)-2,3-dihydrothiazol-4-yl)-2-thiomorpholinoethanone], the IC50 in assay [3] (setting [7]) worked out at 8 ± 1 µM.

Take `C=CCn1c(C(=O)CNCc2ccccc2)cs/c1=N/N=C\C=C\c1ccco1` [GATk4, 1-((Z)-3-allyl-2-((E)-((E)-3-(furan-2-yl)allylidene)hydrazono)-2,3-dihydrothiazol-4-yl)-2-(benzylamino)ethanone]: the IC50 in assay [3] (setting [6]) and in assay [3] (setting [7]) was greater than 25 µM each time.
